Like-named read-outs stand apart in the source and are kept apart here.
Columns and labels:
Molt-4 cells [1] = assay: Molt-4 cell killing activity test (CCK-8); type: cell-based; settings: for EC50: Homo sapiens; for killing Molt-4 cells at different concentrations (Figure 1), in words: 0.001-3 µM, comparison with control molecules
Procedure: Molt-4 cells were cultured and amplified in 10 cm dishes by using RPMI-1640 medium supplemented with 10% fetal bovine serum. Actively growing and healthy Molt-4 cells were collected, centrifuged at 1000 rpm for 5 minutes, and after removing the supernatant, the cells were resuspended in fresh RPMI-1640 medium containing 10% fetal bovine serum. Cell counting was then performed. The cell density was adjusted to 120,000 cells per milliliter, and 100 µL of the cell suspension was added to each well of a 96-well transparent cell culture plate. It was noted that the edge wells of the 96-well plate were not used for testing; and 300 µL of PBS alone was added to these wells to reduce medium evaporation.
The small molecule compounds to be tested for activity were prepared. A series of small molecule concentration gradients (0.001, 0.003, 0.01, 0.03, 0.1, 0.3, 1, and 3 µM) were pre-set, and a series of 2× drug dilutions for the above concentrations were prepared in RPMI-1640 medium containing 10% fetal bovine serum. 100 µL of the above medium containing the gradient concentrations of the drug was added to each well of a 96-well plate pre-seeded with cells, so that the final drug concentration in each well was the pre-set concentration gradient. Three replicate wells were used for each tested drug concentration. The 96-well plate was placed back in a 37°C incubator, and the cell viability was measured after three days.
The plate was taken out three days after adding the drugs, and 100 µL of pre-prepared CCK-8 working solution was added to each well. The CCK-8 working solution was obtained through diluting a CCK-8 stock solution (C0041, Beyotime) by 10-fold volumn with a serum-free RPMI-1640 medium. The 96-well plates with the added CCK-8 working solution were placed back in the 37°C incubator and incubated for 0.5-2 hours. The plates were then taken out, and the absorbance value (OD value) of each well was measured at a wavelength of 450 nm, and the cell viability in each experimental group was calculated according to the following formula: Relative cell viability (%) = […] × 100%.

Bcl-xL protein = target: T1, Bcl-xL protein (Homo sapiens, UniProt Q07817); assay: Degradation experiment of Bcl-xL target protein (Western blot in Molt-4 cells); type: cell-based; settings: 100 nM, 0, 2, 6, 16 h, GAPDH internal control, Figure 4
T1 construct: host or cells: Molt-4 cells
Procedure: Actively growing and healthy Molt-4 cells were subcultured into a fresh RPMI-1640 medium containing 10% fetal bovine serum, and each PROTAC molecule was added thereto at a final concentration of 100 nM. After drug treatment for the specified times (0, 2, 6, and 16 hours), the cells were collected, the supernatant was discarded by centrifugation, and the cells were washed twice with pre-cooled PBS buffer. Total protein was extracted with a lysis buffer (Servicebio, G2002-100ML), and the protein concentration was normalized by using a BCA protein quantification kit (Servicebio, G2026). Protein samples were mixed with a protein-loading buffer and incubated at 95°C for 5 minutes. Western blotting experiments were performed by using the following antibodies: Bcl-xL (Abcam, catalog number ab32370), diluted at 1:500; GAPDH antibody (Servicebio, catalog number GB15004), diluted at 1:1000; and horseradish peroxidase-conjugated goat anti-rabbit secondary antibody (Servicebio, catalog number GB23303), diluted at 1:5000.

HEF cells = assay: Senescent cell killing activity test, HEF cell model (CCK-8); type: cell-based, human
Procedure: To avoid replication of the induced senescent cells, low-passage proliferating HEF cells (<10 passages), MRC5 cells (<6 passages), and BJ cells (<10 passages) were used as normal controls. For chemical drug induced senescence, HEF cells were treated with 10 µM etoposide (Selleck, S1225) for 36-48 hours, MRC5 cells were treated with 5 µM bleomycin (Selleck, S1225) for 72 hours, and BJ cells were treated with 10 µg/mL bleomycin for 72 hours. Three days after the treatment, the cells were subcultured in fresh culture medium at a 1:3 ratio for 72 hours before further analysis and use.
Non-senescent and induced-senescent HEF cells, non-senescent and induced-senescent MRC5 cells, and non-senescent and induced-senescent BJ cells were respectively digested with trypsin, and centrifuged at 1000 rpm for 5 minutes. Then, the supernatant was removed, and the cells were resuspended in fresh DMEM culture medium containing 10% fetal bovine serum for counting. The cell density was adjusted so that the non-senescent cell density was 4000 cells/100 µL and the senescent cell density was 7000 cells/100 µL. 100 µL of the cell suspension was added to each well of a 96-well transparent cell culture plate. It was noted that the edge wells of the 96-well plate were not used as testing wells, and 300 µL of PBS alone was added to these wells to reduce evaporation of the culture medium. The 96-well plates with the well-plated cells were placed back in a 37°C incubator for overnight culture until the cells adhered. On the next day, the small molecule compounds to be tested were prepared and added after the cells had adhered.
A series of small molecule concentration gradients (0.01, 0.03, 0.1, 0.3, 1, 3, 10, and 25 µM) were pre-set, and a series of 2× drug dilutions for the above concentrations were prepared in DMEM culture medium containing 10% fetal bovine serum. 100 µL of the above DMEM culture medium containing the gradient concentrations of the drug was added to each well of the 96-well plate that had been well-plated with cells, so that the final drug concentration in each well was the pre-set series of concentrations. Three replicate wells were used for each test drug concentration. The 96-well plates were placed back in a 37°C incubator, and cell viability was measured after three days.
Three days after adding the drug, the plates were taken out, and the supernatant was discarded. 100 µL of pre-prepared CCK-8 working solution was added to each well. The CCK-8 working solution was obtained through diluting a CCK-8 stock solution (C0041, Beyotime) with a serum-free DMEM culture medium by 10-fold volumn. The 96-well plates containing the CCK-8 working solution were placed back in the 37°C incubator and incubated for 0.5-2 hours. The plates were then taken out, and the absorbance value (OD value) of each well was measured at a wavelength of 450 nm. The cell viability in each experimental group was calculated according to the following formula: Relative cell viability (%) = (Blank control group - Experimental group) / Blank control group × 100%.

Molt-4 cells [2] = assay: Detection of E3 enzyme-dependence: Molt-4 cell killing with or without pomalidomide (CCK-8); type: cell-based; settings: 10 µM pomalidomide, Figure 2
Procedure: Actively growing and healthy Molt-4 cells were collected, centrifuged at 1000 rpm for 5 minutes, and after removing the supernatant, the cells were resuspended in fresh RPMI-1640 medium containing 10% fetal bovine serum. Cell counting was then performed. The cell density was adjusted to 120,000 cells per milliliter, and 100 µL of the cell suspension was added to each well of a 96-well transparent cell culture plate. It was noted that the edge wells of the 96-well plate were not used for testing, and 300 µL of PBS alone was added to these wells to reduce medium evaporation.
Molt-4 cells were plated in duplicate according to the number of the tested small molecules, so as to test the effects with and without the addition of pomalidomide (a competitive ligand specific for E3 ligase), in which one half of the parallel cells was added 10 µM pomalidomide. A series of small molecule concentration gradients (0.001, 0.003, 0.01, 0.03, 0.1, 0.3, 1, and 3 µM) were pre-set, and a series of 2× drug dilutions for the above concentrated were prepared in DMEM medium containing 10% fetal bovine serum. 100 µL of the above DMEM medium containing the gradient concentrations of the drug was added to 96-well plates that have been pre-plated with cells, so that the final drug concentration in each well was the pre-set series of concentrations respectively. Three replicate wells were used for each test drug concentration. The 96-well plates were placed back in a 37°C incubator, and the cell viability was detected after three days.
Cell viability after drug treatment was detected by using the CCK-8 method: three days after adding the drugs, the plates were taken out, and the supernatant was discarded. Then, 100 µL of pre-prepared CCK-8 working solution was added to each well. The CCK-8 working solution was obtained through diluting a CCK-8 stock solution (C0041, Beyotime) by 10-fold volumn with a serum-free DMEM culture medium. The 96-well plates with the added CCK-8 working solution were placed back in the 37°C incubator and incubated for 0.5-2 hours. The plates were then taken out, and the absorbance value (OD value) of each well was measured at a wavelength of 450 nm. The cell viability in each experimental group was calculated according to the following formula: Relative cell viability (%) = (Blank control group - Experimental group) / Blank control group × 100%.

[3] = 72 h, Molt-4 cells, three days, CCK-8, read-out: EC50 (Molt-4)
[4] = Bcl-xL-positive Molt-4 cells, read-out: cellular activity / killing activity (Molt-4 cells)

T1 sequence (Q07817 whole entry): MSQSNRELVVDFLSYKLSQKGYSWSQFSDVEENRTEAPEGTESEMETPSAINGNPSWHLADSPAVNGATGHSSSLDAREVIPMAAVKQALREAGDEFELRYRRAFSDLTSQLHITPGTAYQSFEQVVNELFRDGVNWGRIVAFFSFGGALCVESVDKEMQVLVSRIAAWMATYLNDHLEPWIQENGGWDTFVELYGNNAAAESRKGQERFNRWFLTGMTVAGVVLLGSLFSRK

SMILES | EC50 (Molt-4 cells [1]; [3]) [nM] | degradation of the Bcl-xL protein (Bcl-xL protein) | killing senescent HEF cells (HEF cells; etoposide-induced senescent vs normal HEF cells, Figures 3A-3F) | toxicity on normal non-senescent HEF cells (HEF cells; higher concentration (25 µM)) | cell killing activity after addition of pomalidomide (+poma) compared to without (-poma) (Molt-4 cells [2]) | killing Molt-4 cells at different concentrations (Figure 1), in words (Molt-4 cells [1]) | EC50 (Molt-4 cells [1]; [4]) [nM]
CC(C)(C)[C@H](NC(=O)C1(F)CC1)C(=O)N1C[C@H](O)C[C@H]1C(=O)N[C@@H](CC(=O)N1CCC(CCN2CCN(CC#Cc3ccc(OCCCc4ccc(N5CCc6cccc(C(=O)Nc7nc8ccccc8s7)c6C5)nc4C(=O)O)c(F)c3)CC2)CC1)c1ccc(Cl)cc1 [APH106] | 10 to 100 | had the ability to degrade the Bcl-xL protein | – | – | – | – | –
O=C1CCC(N2C(=O)c3cccc(NCCOCCOCCOCCOCCN4CCN(CC#Cc5ccc(OCCCc6ccc(N7CCc8cccc(C(=O)Nc9nc%10ccccc%10s9)c8C7)nc6C(=O)O)c(F)c5)CC4)c3C2=O)C(=O)N1 (stereo not drawn) [BF4] | 10 to 100 | had the ability to degrade the Bcl-xL protein | efficiently and selectively kill senescent HEF cells | no toxicity on normal non-senescent HEF cells | significantly reduced cell killing activity | – | –
CS(=O)(=O)NC(=O)c1nc(N2CCc3cccc(C(=O)Nc4nc5ccccc5s4)c3C2)ccc1CCCOc1ccc(C#CCN2CCN(CC3CCN(c4ccc(N5CCC(=O)NC5=O)cc4)CC3)CC2)cc1F [APQ10-2] | < 10 | had the ability to degrade the Bcl-xL protein | – | – | significantly reduced cell killing activity | comparable to A-1331852 | < 10
O=C1CCN(c2cc(F)c(N3CCN(CC#Cc4ccc(OCCCc5ccc(N6CCc7cccc(C(=O)Nc8nc9ccccc9s8)c7C6)nc5C(=O)O)c(F)c4)CC3)cc2F)C(=O)N1 [APQ904] | < 10 | had the ability to degrade the Bcl-xL protein | – | – | significantly reduced cell killing activity | comparable to A-1331852 | < 10
Cc1cc([C@H](C(=O)N2C[C@H](O)C[C@H]2C(=O)N[C@@H](CC(=O)N2CCC(CCN3CCN(CC#Cc4ccc(OCCCc5ccc(N6CCc7cccc(C(=O)Nc8nc9ccccc9s8)c7C6)nc5C(=O)O)c(F)c4)CC3)CC2)c2ccc(Cl)cc2)C(C)C)on1 [APH105] | < 10 | had the ability to degrade the Bcl-xL protein | – | – | – | – | < 10
Cc1cc([C@H](C(=O)N2C[C@H](O)C[C@H]2C(=O)N[C@@H](CC(=O)N2CCC(CN3CCN(CC#Cc4ccc(OCCCc5ccc(N6CCc7cccc(C(=O)Nc8nc9ccccc9s8)c7C6)nc5C(=O)O)c(F)c4)CC3)CC2)c2ccc(-c3scnc3C)cc2)C(C)C)on1 [APH7] | 10 to 100 | had the ability to degrade the Bcl-xL protein | – | – | – | – | –
Cc1ncsc1-c1ccc([C@H](C)NC(=O)[C@@H]2C[C@@H](O)CN2C(=O)[C@@H](NC(=O)CN2CCN(CC#Cc3ccc(OCCCc4ccc(N5CCc6cccc(C(=O)Nc7nc8ccccc8s7)c6C5)nc4C(=O)O)c(F)c3)CC2)C(C)(C)C)cc1 [APH1] | 10 to 100 | had the ability to degrade the Bcl-xL protein | – | – | – | – | –

Source: patent publication EP4759810A1, “PROTAC TARGETING BCL-XL PROTEIN AND USE THEREOF” (BEIJING SUNCELL BIO-MEDICAL CO., LTD., priority 2023, dated 2025)
